Data from patent publication US11365187B2, “Pesticidally active pyrazole derivatives” (SYNGENTA PARTICIPATIONS AG, priority 2017, dated 2022).
Read-outs that look alike come from different tables or passages of the source.

Experiments:
Assay type in all cases: in vivo
[1] = system: Tetranychus urticae (Two-spotted spider mite); test: Tetranychus urticae feeding/contact activity on bean leaf discs; conditions: foliar, 192 h, read-out: mortality on mixed population (mobile stages)
Protocol: Tetranychus urticae (Two-spotted spider mite): Feeding/contact activity
Bean leaf discs on agar in 24-well microtiter plates were sprayed with aqueous test solutions prepared from 10′000 ppm DMSO stock solutions. After drying the leaf discs were infested with a mite population of mixed ages. The samples were assessed for mortality on mixed population (mobile stages) 8 days after infestation.

[2] = system: Spodoptera littoralis (Egyptian cotton leaf worm); test: Spodoptera littoralis feeding/contact activity on cotton leaf discs; conditions: foliar, 72 h
Protocol: Spodoptera littoralis (Egyptian cotton leaf worm): Feeding/contact activity
Cotton leaf discs were placed onto agar in 24-well microtiter plates and sprayed with aqueous test solutions prepared from 10′000 ppm DMSO stock solutions. After drying the leaf discs were infested with five L1 larvae. The samples were assessed for mortality 3 days after infestation. […] 2, 3, 4, 5, 6, 7, 8, 9, 10, 11, 12, 13, 14, 15, 16, 17, 18, 19, 20, 21, 22, 23, 24, 25, 26, 27, 28 and 29.

[3] = system: Euschistus heros (Neotropical Brown Stink Bug); test: Euschistus heros feeding/contact activity on soybean leaves; conditions: 120 h
Protocol: Euschistus heros (Neotropical Brown Stink Bug): Feeding/contact activity
Soybean leaves on agar in 24-well microtiter plates were sprayed with aqueous test solutions prepared from 10′000 ppm DMSO stock solutions. After drying the leaves were infested with N2 nymphs. The samples were assessed for mortality 5 days after infestation.

[4] = system: Myzus persicae (Green peach aphid); test: Myzus persicae feeding/contact activity on sunflower leaf discs; conditions: foliar, 144 h
Protocol: Myzus persicae (Green peach aphid): Feeding/Contact activity
Sunflower leaf discs were placed onto agar in a 24-well microtiter plate and sprayed with aqueous test solutions prepared from 10′000 ppm DMSO stock solutions. After drying, the leaf discs were infested with an aphid population of mixed ages. The samples were assessed for mortality 6 days after infestation.

[5] = system: Plutella xylostella (Diamond back moth); test: Plutella xylostella feeding/contact activity on artificial diet; conditions: 120 h
Protocol: Plutella xylostella (Diamond back moth): Feeding/contact activity
24-well microtiter plates with artificial diet were treated with aqueous test solutions prepared from 10′000 ppm DMSO stock solutions by pipetting. After drying, the plates were infested with L2 larvae (10 to 15 per well). The samples were assessed for mortality 5 days after infestation.

[6] = application rate 200 ppm, mite population of mixed ages, assessed 8 days after infestation
[7] = application rate 200 ppm, L1 larvae, assessed 3 days after infestation, read-out: mortality
[8] = application rate 200 ppm, N2 nymphs, assessed 5 days after infestation, read-out: mortality
[9] = application rate 200 ppm, aphid population of mixed ages, assessed 6 days after infestation, read-out: mortality
[10] = application rate 200 ppm, L2 larvae, assessed 5 days after infestation, read-out: mortality

Measured: mortality at 200 ppm

COCCCN(C(=O)c1cc(-c2cnn(-c3c(OC(F)F)c(C(F)(C(F)(F)F)C(F)(F)F)nn3C)c2)ccc1Cl)C1(C#N)CC1 [Example 6, 2-chloro-N-(1-cyanocyclopropyl)-5-[1-[4-(difluoromethoxy)-2-methyl-5-[1,2,2,2-tetrafluoro-1-(trifluoromethyl)ethyl]pyrazol-3-yl]pyrazol-4-yl]-N-(3-methoxypropyl)benzamide]
≥ 80%: [1]; [6] | [2]; [7] | [3]; [8] | [4]; [9] | [5]; [10]

CC(C)OCN(C(=O)c1cc(-c2cnn(-c3c(OC(F)F)c(C(F)(C(F)(F)F)C(F)(F)F)nn3C)c2)ccc1Cl)C1(C#N)CC1 [Example 2, 2-chloro-N-(1-cyanocyclopropyl)-5-[1-[4-(difluoromethoxy)-2-methyl-5-[1,2,2,2-tetrafluoro-1-(trifluoromethyl)ethyl]pyrazol-3-yl]pyrazol-4-yl]-N-(isopropoxymethyl)benzamide]
≥ 80%: [1]; [6] | [2]; [7] | [3]; [8] | [4]; [9] | [5]; [10]

COCC(=O)N(C(=O)c1cc(-c2cnn(-c3c(OC(F)F)c(C(F)(C(F)(F)F)C(F)(F)F)nn3C)c2)ccc1Cl)C1CC1 [Example 22, 2-chloro-N-cyclopropyl-5-[1-[-4-(difluoromethoxy)-2-methyl-5-[1,2,2,2-tetrafluoro-1-(trifluoromethyl)ethyl]pyrazol-3-yl]pyrazol-4-yl]-N-(2-methoxyacetyl)benzamide]
≥ 80%: [1]; [6] | [2]; [7] | [3]; [8] | [4]; [9] | [5]; [10]

CC(C)CN(C(=O)c1cc(-c2cnn(-c3c(OC(F)F)c(C(F)(C(F)(F)F)C(F)(F)F)nn3C)c2)ccc1Cl)C1(C#N)CC1 [Example 21, 2-chloro-N-(1-cyanocyclopropyl)-5-[1-[4-(difluoromethoxy)-2-methyl-5-[1,2,2,2-tetrafluoro-1-(trifluoromethyl)ethyl]pyrazol-3-yl]pyrazol-4-yl]-N-isobutyl-benzamide]
≥ 80%: [2]; [7] | [3]; [8]

CCOCN(C(=O)c1cc(-c2cnn(-c3c(OC(F)F)c(C(F)(C(F)(F)F)C(F)(F)F)nn3C)c2)ccc1Cl)C1(C#N)CC1 [Example 10, 2-chloro-N-(1-cyanocyclopropyl)-5-[1-[4-(difluoromethoxy)-2-methyl-5-[1,2,2,2-tetrafluoro-1-(trifluoromethyl)ethyl]pyrazol-3-yl]pyrazol-4-yl]-N-(ethoxymethyl)benzamide]
≥ 80%: [1]; [6] | [2]; [7] | [3]; [8] | [4]; [9] | [5]; [10]

CCOCN(C(=O)c1cc(-c2cnn(-c3c(OC(F)F)c(C(F)(C(F)(F)F)C(F)(F)F)nn3C)c2)ccc1Cl)C1CC1 [Example 27, 2-chloro-N-cyclopropyl-5-[1-[4-(difluoromethoxy)-2-methyl-5-[1,2,2,2-tetrafluoro-1-(trifluoromethyl)ethyl]pyrazol-3-yl]pyrazol-4-yl]-N-(ethoxymethyl)benzamide]
≥ 80%: [1]; [6] | [2]; [7] | [3]; [8] | [4]; [9] | [5]; [10]

Cn1nc(C(F)(C(F)(F)F)C(F)(F)F)c(OC(F)F)c1-n1cc(-c2ccc(Cl)c(C(=O)NC3CC3)c2)cn1 [Example 17, 2-chloro-N-cyclopropyl-5-[1-[4-(difluoromethoxy)-2-methyl-5-[1,2,2,2-tetrafluoro-1-(trifluoromethyl)ethyl]pyrazol-3-yl]pyrazol-4-yl]benzamide]
≥ 80%: [1]; [6] | [2]; [7] | [3]; [8] | [4]; [9] | [5]; [10]

CC(C)OC(=O)N(C(=O)c1cc(-c2cnn(-c3c(OC(F)F)c(C(F)(C(F)(F)F)C(F)(F)F)nn3C)c2)ccc1Cl)C1CC1 [Example 24, isopropyl N-[2-chloro-5-[1-[4-(difluoromethoxy)-2-methyl-5-[1,2,2,2-tetrafluoro-1-(trifluoromethyl)ethyl]pyrazol-3-yl]pyrazol-4-yl]benzoyl]-N-cyclopropyl-carbamate]
≥ 80%: [1] | [2] | [3] | [4] | [5]

CCCN(C(=O)c1cc(-c2cnn(-c3c(OC(F)F)c(C(F)(C(F)(F)F)C(F)(F)F)nn3C)c2)ccc1Cl)C1(C#N)CC1 [Example 14, 2-chloro-N-(1-cyanocyclopropyl)-5-[1 - [4-(difluoromethoxy)-2-methyl-5-[1,2,2,2-tetrafluoro-1-(trifluoromethyl)ethyl]pyrazol-3-yl]pyrazol-4-yl]-N-propyl-benzamide]
≥ 80%: [2]; [7] | [3]; [8]

COC(=O)N(C(=O)c1cc(-c2cnn(-c3c(OC(F)F)c(C(F)(C(F)(F)F)C(F)(F)F)nn3C)c2)ccc1Cl)C1CC1 [Example 23, methyl N-[2-chloro-5-[1-[4-(difluoromethoxy)-2-methyl-5-[1,2,2,2-tetrafluoro-1-(trifluoromethyl)ethyl]pyrazol-3-yl]pyrazol-4-yl]benzoyl]-N-cyclopropyl-carbamate]
≥ 80%: [1] | [2] | [3] | [4] | [5]

Cn1nc(C(F)(C(F)(F)F)C(F)(F)F)c(OC(F)F)c1-n1cc(-c2ccc(Cl)c(C(=O)N(CC#N)C3(C#N)CC3)c2)cn1 [Example 11, 2-chloro-N-(1-cyanocyclopropyl)-N-(cyanomethyl)-5-[1-[4-(difluoromethoxy)-2-methyl-5-[1,2,2,2-tetrafluoro-1-(trifluoromethyl)ethyl]pyrazol-3-yl]pyrazol-4-yl]benzamide]
≥ 80%: [1]; [6] | [2]; [7] | [3]; [8] | [4]; [9] | [5]; [10]

CC(C)N(C(=O)c1cc(-c2cnn(-c3c(OC(F)F)c(C(F)(C(F)(F)F)C(F)(F)F)nn3C)c2)ccc1Cl)C1(C#N)CC1 [Example 5, 2-chloro-N-(1-cyanocyclopropyl)-5-[1-[4-(difluoromethoxy)-2-methyl-5-[1,2,2,2-tetrafluoro-1-(trifluoromethyl)ethyl]pyrazol-3-yl]pyrazol-4-yl]-N-isopropyl-benzamide]
≥ 80%: [2]; [7] | [3]; [8]

CC(C)OC(=O)N(C(=O)c1cc(-c2cnn(-c3c(OC(F)F)c(C(F)(C(F)(F)F)C(F)(F)F)nn3C)c2)ccc1Cl)C1(C#N)CC1 [Example 20, isopropyl N-[2-chloro-5-[1-[4-(difluoromethoxy)-2-methyl-5-[1,2,2,2-tetrafluoro-1-(trifluoromethyl)ethyl]pyrazol-3-yl]pyrazol-4-yl]benzoyl]-N-(1-cyanocyclopropyl)carbamate]
≥ 80%: [2] | [3] | [4] | [5]

CCOCCN(C(=O)c1cc(-c2cnn(-c3c(OC(F)F)c(C(F)(C(F)(F)F)C(F)(F)F)nn3C)c2)ccc1Cl)C1(C#N)CC1 [Example 13, 2-chloro-N-(1-cyanocyclopropyl)-5-[1-[4-(difluoromethoxy)-2-methyl-5-[1,2,2,2-tetrafluoro-1-(trifluoromethyl)ethyl]pyrazol-3-yl]pyrazol-4-yl]-N-(2-ethoxyethyl)benzamide]
≥ 80%: [1]; [6] | [2]; [7] | [4]; [9] | [5]; [10]
